According to ChEMBL document CHEMBL1201862, “PubChem BioAssay data set” (2004):
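Five concentrations, 48 hours, 96-well plates. GI50 is the concentration that inhibits growth by half.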 The source made the active and inactive calls. Cut-off read from the data, not from the text of the source: active = GI50 up to about 1.1 µM and inactive = higher.

Legend:
Assay in all cases: NCI-60 cell line screen, 48 h
SN12C = tested on: SN12C
BT-549 = tested on: BT-549
MCF7 = tested on: MCF7
HCT-15 = tested on: HCT-15
NCI-H460 = tested on: NCI-H460
NCI/ADR-RES = tested on: NCI/ADR-RES
SF-539 = tested on: SF-539
ACHN = tested on: ACHN
UO-31 = tested on: UO-31
EKVX = tested on: EKVX
K562 = tested on: K562
CAKI-1 = tested on: CAKI-1
DU-145 = tested on: DU-145
786-0 = tested on: 786-0
A549 = tested on: A549
HOP-92 = tested on: HOP-92
NCI-H226 = tested on: NCI-H226
NCI-H522 = tested on: NCI-H522
RPMI-8226 = tested on: RPMI-8226
SR = tested on: SR

| Compound | GI50 (SN12C) | GI50 (BT-549) | GI50 (MCF7) | GI50 (HCT-15) [µM] | GI50 (NCI-H460) | GI50 (NCI/ADR-RES) | GI50 (SF-539) | GI50 (ACHN) | GI50 (UO-31) | GI50 (EKVX) | GI50 (K562) | GI50 (CAKI-1) | GI50 (DU-145) | GI50 (786-0) | GI50 (A549) | GI50 (HOP-92) | GI50 (NCI-H226) | GI50 (NCI-H522) | GI50 (RPMI-8226) | GI50 (SR) |
| --- | --- | --- | --- | --- | --- | --- | --- | --- | --- | --- | --- | --- | --- | --- | --- | --- | --- | --- | --- | --- |
| N#CC1(C#N)C2CCCCC23OC(=N)C1(C#N)C(c1ccco1)O3 (stereo not drawn) | 14.8 µM (inactive) | 15.6 µM (inactive) | 21.9 µM (inactive) | 9.23 | 25.8 µM (inactive) | 44.3 µM (inactive) | 23.8 µM (inactive) | 28.5 µM (inactive) | 30.3 µM (inactive) | 25.8 µM (inactive) | 8.38 µM (inactive) | 11.6 µM (inactive) | 25.9 µM (inactive) | 14.5 µM (inactive) | > 100 µM (inactive) | 13.8 µM (inactive) | > 100 µM (inactive) |  |  |  |
| Nc1ncnc2c1ccn2C/C=C\CO | > 100 µM (inactive) | > 100 µM (inactive) | > 100 µM (inactive) | > 100 | > 100 µM (inactive) | > 100 µM (inactive) | > 100 µM (inactive) | > 100 µM (inactive) | > 100 µM (inactive) | > 100 µM (inactive) | > 100 µM (inactive) | > 100 µM (inactive) | > 100 µM (inactive) | > 100 µM (inactive) | > 100 µM (inactive) | > 100 µM (inactive) |  | 84.7 µM (inactive) | > 100 µM (inactive) |  |
| CO/C(N)=C(C#N)/N=C/c1cccs1 | > 100 µM (inactive) | 95.1 µM (inactive) | 24.4 µM (inactive) | 45.7 | > 100 µM (inactive) | 98.2 µM (inactive) | 92.7 µM (inactive) | > 100 µM (inactive) | > 100 µM (inactive) | 42.4 µM (inactive) | 42.2 µM (inactive) | 24.3 µM (inactive) | > 100 µM (inactive) | > 100 µM (inactive) | > 100 µM (inactive) | > 100 µM (inactive) | > 100 µM (inactive) | 18.4 µM (inactive) |  |  |
| Cc1ccc(S(=O)(=O)n2cc(/C=C/C#N)c(-c3cn(S(=O)(=O)c4ccc(C)cc4)cc3-c3cn(S(=O)(=O)c4ccc(C)cc4)cc3/C=C/C#N)c2)cc1 | > 100 µM (inactive) | > 100 µM (inactive) |  | > 100 |  | > 100 µM (inactive) |  | > 100 µM (inactive) | 38.4 µM (inactive) | > 100 µM (inactive) | 57.4 µM (inactive) | > 100 µM (inactive) | > 100 µM (inactive) | > 100 µM (inactive) |  | 43.6 µM (inactive) | > 100 µM (inactive) | > 100 µM (inactive) | 17.4 µM (inactive) | > 100 µM (inactive) |
| O=C1Nc2ccccc2/C1=N/Nc1ncccc1[N+](=O)[O-] | 17.3 µM (inactive) | 11.5 µM (inactive) | 3.19 µM (inactive) | 4.72 | 16.7 µM (inactive) | 9.25 µM (inactive) | 2.37 µM (inactive) | 4.69 µM (inactive) | 11.6 µM (inactive) | 5.08 µM (inactive) | 3.95 µM (inactive) |  | 14.6 µM (inactive) | 4.84 µM (inactive) | 18 µM (inactive) | 62.2 µM (inactive) | 13.6 µM (inactive) | 9.71 µM (inactive) | 3.15 µM (inactive) |  |
| CC(C)(C)OC(=O)N1C(=O)OC[C@@H]2C=C[C@@H]21 | > 100 µM (inactive) | > 100 µM (inactive) | > 100 µM (inactive) | > 100 | > 100 µM (inactive) | > 100 µM (inactive) | > 100 µM (inactive) | > 100 µM (inactive) |  | > 100 µM (inactive) |  | > 100 µM (inactive) | > 100 µM (inactive) | > 100 µM (inactive) | > 100 µM (inactive) | > 100 µM (inactive) |  | > 100 µM (inactive) | > 100 µM (inactive) |  |
| CC1=CC(=O)/C(=C/NC(=S)c2ccccc2)C(=O)O1 | > 100 µM (inactive) | > 100 µM (inactive) | > 100 µM (inactive) | > 100 | > 100 µM (inactive) | > 100 µM (inactive) | > 100 µM (inactive) | > 100 µM (inactive) | > 100 µM (inactive) | > 100 µM (inactive) |  | > 100 µM (inactive) | > 100 µM (inactive) | > 100 µM (inactive) | > 100 µM (inactive) | > 100 µM (inactive) | > 100 µM (inactive) |  |  |  |
| CCSc1cc(=O)n(C)c(=O)n1C | > 100 µM (inactive) | > 100 µM (inactive) | > 100 µM (inactive) | > 100 | > 100 µM (inactive) | > 100 µM (inactive) | > 100 µM (inactive) | > 100 µM (inactive) | > 100 µM (inactive) | > 100 µM (inactive) |  | > 100 µM (inactive) | > 100 µM (inactive) | > 100 µM (inactive) | > 100 µM (inactive) | > 100 µM (inactive) | > 100 µM (inactive) | > 100 µM (inactive) | > 100 µM (inactive) |  |
| CN1CCN(CCCBr)CC1 | > 100 µM (inactive) | > 100 µM (inactive) | > 100 µM (inactive) | > 100 | > 100 µM (inactive) | > 100 µM (inactive) | > 100 µM (inactive) | > 100 µM (inactive) | > 100 µM (inactive) | > 100 µM (inactive) | > 100 µM (inactive) |  | > 100 µM (inactive) | > 100 µM (inactive) | > 100 µM (inactive) | > 100 µM (inactive) | > 100 µM (inactive) | > 100 µM (inactive) | > 100 µM (inactive) |  |
| Nc1ccccc1/C=C\c1ccccc1 | > 100 µM (inactive) | > 100 µM (inactive) | > 100 µM (inactive) | > 100 | > 100 µM (inactive) | > 100 µM (inactive) | > 100 µM (inactive) | > 100 µM (inactive) | > 100 µM (inactive) | > 100 µM (inactive) | > 100 µM (inactive) |  | > 100 µM (inactive) | > 100 µM (inactive) | > 100 µM (inactive) | > 100 µM (inactive) | > 100 µM (inactive) |  | > 100 µM (inactive) |  |
| C[C@]12CC[C@@H]3c4ccc(O)cc4CC[C@H]3[C@@H]1C/C(=C\c1ccncc1)[C@@H]2O | 26.9 µM (inactive) | 3.86 µM (inactive) | 10.1 µM (inactive) | 4.22 | 6.32 µM (inactive) | 5.56 µM (inactive) |  | 11.2 µM (inactive) | 21.5 µM (inactive) | 18.5 µM (inactive) |  | 12.8 µM (inactive) | 19.1 µM (inactive) | 14.3 µM (inactive) | 7.36 µM (inactive) | 5.32 µM (inactive) | 10.7 µM (inactive) | 3.73 µM (inactive) | 3.13 µM (inactive) |  |
| CC(C)(C)[Si](C)(C)OCCc1ccccc1C1CC2(S(=O)(=O)c3ccccc3)ON1CC2S(=O)(=O)c1ccccc1 (stereo not drawn) | > 100 µM (inactive) | > 100 µM (inactive) | 60.5 µM (inactive) |  | > 100 µM (inactive) | > 100 µM (inactive) | > 100 µM (inactive) | > 100 µM (inactive) | > 100 µM (inactive) | > 100 µM (inactive) | > 100 µM (inactive) |  | > 100 µM (inactive) | > 100 µM (inactive) | > 100 µM (inactive) |  | > 100 µM (inactive) |  |  |  |
